{"source": "patent US20260137806A1", "about": "“INTERCALATING SUGAR MOLECULES” (Xalud Therapeutics, Inc., priority 2022, published 2026)", "key": {"[1]": {"system": "NR8383 rat alveolar macrophages", "assay": "Cellular delivery: pDNA uptake (ddPCR)", "type": "cell-based", "settings": "LPS-activated NR8383; for pDNA copies per μL cell suspension: D-mannose plus pDNA", "description": "The cell line used was NR8383 rat alveolar macrophages, which grow as a mixture of suspended and adherent cells. The culture medium was F-12K Medium+15% FBS. The cells were plated in a 24-well format at a seeding density of 4-6×10^5 cells/mL into the wells of a 24-well plate. All conditions were performed in duplicate. The testing conditions used NR8383 cells in both unactivated and activated states. […] Activated macrophages are characteristic of macrophages found in inflammatory disease states. […] Either 0, 1, or 2 μg pDNA was used per well, with or without mannose. The combination of pDNA minus D-mannose serves as pDNA control for all conditions. The combination of pDNA with uncomplexed Mannoquin 38 was completed by adding separate pDNA and Mannoquin 38 solutions to culture. Also, pDNA with complexed Mannoquin 38 were studied wherein pre-incubated pDNA and Mannoquin 38 solutions were added to the culture. Lipofectamine 2000 transfections per manufacturer's instructions was used as a positive control. Separate confirmation of successful transfection with Lipofectamine 2000 has been confirmed. The pDNA solution used was 40 μg/mL pDNA in PBS (herein after “Working pDNA solution”). […] For studies with no pDNA, 100 μL of 1×PBS was added to the appropriate culture wells. For plasmid-only conditions, to the appropriate culture wells, 100 μL of DNA solutions was added, wherein the solution was 50 μL of Working pDNA solution+150 μL of 1×PBS (1 μg pDNA) or 100 μL of Working pDNA solution+100 μL of 1×PBS (2 μg pDNA). For non-complexed test agent conditions, to the appropriate culture wells, 50 μL of each separately prepared solution was added: DNA solution (0, 25, or 50 μL Working pDNA solution+100, 75, or 50 μL 1×PBS, respectively) or test agent solution (25, 25, or 50 μL Test Agent Working solution+75, 75, or 50 μL 1×PBS, respectively). […] PCR reaction was performed and read according to the manufacturer's protocol."}, "[2]": {"assay": "Kinetic solubility measurements", "settings": "aqueous buffer, kinetic from dmso stock"}, "DNA plasmid": {"system": "DNA plasmid", "assay": "Quinacrine-DNA binding saturation (absorbance titration)", "settings": "4 mM or 8 mM phosphate/citrate buffer; FIG. 3", "description": "FIG. 2 is a wavelength versus absorbance graph used to study quinacrine-DNA binding. Quinacrine concentrations were held constant under low ionic conditions (10 mM Na^+), and DNA plasmid was titrated. Absorbance was measured at 260 nm (DNA absorbance), 424 nm (quinacrine absorbance), 445 nm (quinacrine absorbance), and 461 nm (isobestic point).\nFIG. 3 is a plasmid:quinacrine ratio versus absorbance graph used to study quinacrine-DNA binding saturation. The recovery of absorbance (marked with an arrow) indicates saturation. Saturation occurred at a plasmid/quinacrine ratio of 8 in 4 mM or 8 mM phosphate/citrate buffer."}}, "note": "Several values for one entry are separate records, joined by “and”; a condition that tells them apart may be missing. Equal entries are not always repeated.", "data": [{"smiles": "O=C[C@@H](O)[C@@H](O)[C@H](O)[C@H](O)CO", "note": "[D-mannose]", "values": [{"measurement": "pDNA copies per μL cell suspension", "setting": "[1]; 1 μg pDNA", "result": "68 copies per μL cell suspension"}, {"measurement": "pDNA copies per μL cell suspension", "setting": "[1]; 2 μg pDNA", "result": "68.4 copies per μL cell suspension"}, {"measurement": "dose-dependency of uptake based on pDNA level", "setting": "[1]; agent plus pDNA, not complexed", "result": "no dose-dependency"}]}, {"smiles": "C[C@]12CC[C@H]3[C@@H](CCC4=CC(=O)CC[C@@]43C)[C@@H]1CC[C@@H]2O", "note": "[Testosterone]", "values": [{"measurement": "solubility at 4 h", "setting": "[2]", "result": "40 µM and 12 µg/mL"}]}, {"smiles": "CCN(CC)CCCC(C)Nc1c2ccc(Cl)cc2nc2ccc(OC)cc12", "note": "(centres unmarked) [quinacrine]", "values": [{"measurement": "plasmid/quinacrine ratio at saturation", "setting": "DNA plasmid", "result": 8}]}]}
